Assay results from PubChem BioAssay AID248 (DTP/NCI, 2004).
Toxic doses and inconclusive results are not listed. No stated cut-off is given here; in the data, active means T/C of 150% or more; inactive means T/C below 125%.

Tested on: L1210 leukemia ip in BDF1 mice, survival T/C
Assay: NCI In Vivo Anticancer Drug Screen. Data for tumor model L1210 Leukemia (intraperitoneal) in B6D2F1 (BDF1) mice
Conditions: endpoint: mean survival time, higher = longer survival
Outline: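 Transplanted-tumor mice were given test agent; controls received vehicle only. Survival readings from the two groups were divided (treated over control).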

[1] = dose: 100.0 mg/kg/injection, schedule: Q04DX003 (ip), vehicle: Klucel (hydroxypropylcellulose) (HPC)
[2] = dose: 100.0 mg/kg/injection, schedule: Q01DX001 (ip), vehicle: carboxymethylcellulose (CMC)
[3] = dose: 200.0 mg/kg/injection, schedule: Q01DX001 (ip), vehicle: carboxymethylcellulose (CMC)
[4] = dose: 100.0 mg/kg/injection, schedule: Q04DX003 (ip), vehicle: saline with Tween-80
[5] = dose: 200.0 mg/kg/injection, schedule: Q04DX003 (ip), vehicle: saline with Tween-80
[6] = dose: 400.0 mg/kg/injection, schedule: Q04DX003 (ip), vehicle: saline with Tween-80
[7] = dose: 25.0 mg/kg/injection, schedule: Q01DX009 (ip), vehicle: Klucel (hydroxypropylcellulose) (HPC)
[8] = dose: 50.0 mg/kg/injection, schedule: Q04DX003 (ip), vehicle: Klucel (hydroxypropylcellulose) (HPC)
[9] = dose: 100.0 mg/kg/injection, schedule: Q01DX009 (ip), vehicle: saline with Tween-80
[10] = dose: 200.0 mg/kg/injection, schedule: Q01DX009 (ip), vehicle: saline with Tween-80
[11] = dose: 400.0 mg/kg/injection, schedule: Q01DX009 (ip), vehicle: saline with Tween-80
[12] = dose: 400.0 mg/kg/injection, schedule: Q01DX001 (ip), vehicle: carboxymethylcellulose (CMC)

Measured: T/C

CN=C(NC)c1ccc(NC(=O)Nc2ccc(NC(=O)Nc3ccc(C(=NC)NC)cc3)cc2)cc1
inactive: dose: 3.94 mg/kg/injection, schedule: Q01DX Z (ip), vehicle: saline 108 % of control | dose: 4.0 mg/kg/injection, schedule: Q01DX Z (ip), vehicle: carboxymethylcellulose (CMC) 107 % of control | dose: 5.9 mg/kg/injection, schedule: Q01DX Z (ip), vehicle: saline 114 % of control | dose: 8.0 mg/kg/injection, schedule: Q01DX Z (ip), vehicle: carboxymethylcellulose (CMC) 121 % of control | dose: 8.86 mg/kg/injection, schedule: Q01DX Z (ip), vehicle: saline 120 % of control | dose: 30.0 mg/kg/injection, schedule: Q01DX Z (ip), vehicle: carboxymethylcellulose (CMC) 101 % of control | dose: 45.0 mg/kg/injection, schedule: Q01DX Z (ip), vehicle: saline 115 % of control

O=C(C[n+]1ccc2ccccc2c1)c1ccc2ccccc2c1
inactive: dose: 6.25 mg/kg/injection, schedule: Q01DX009 (ip), vehicle: saline with Tween-80 95 % of control | dose: 12.5 mg/kg/injection, schedule: Q01DX009 (ip), vehicle: saline with Tween-80 87 % of control | dose: 25.0 mg/kg/injection, schedule: Q01DX009 (ip), vehicle: saline with Tween-80 90 % of control

COC1OC(COC(=O)c2ccccc2)C(OC(=O)c2ccccc2)C(OC(=O)c2ccccc2)C1OS(=O)(=O)c1ccc(C)cc1 (configuration not stated)
inactive: dose: 100.0 mg/kg/injection, schedule: Q04DX002 (ip), vehicle: Klucel (hydroxypropylcellulose) (HPC) 103 % of control | dose: 200.0 mg/kg/injection, schedule: Q04DX002 (ip), vehicle: Klucel (hydroxypropylcellulose) (HPC) 88 % of control | dose: 400.0 mg/kg/injection, schedule: Q04DX002 (ip), vehicle: Klucel (hydroxypropylcellulose) (HPC) 88 % of control

Clc1ccc(/C=C2\c3cc(Cl)ccc3-c3c(Cl)cc(Cl)cc32)cc1
inactive: dose: 100.0 mg/kg/injection, schedule: Q01DX001 (ip), vehicle: Klucel (hydroxypropylcellulose) (HPC) 91 % of control | dose: 100.0 mg/kg/injection, schedule: Q01DX009 (ip), vehicle: Klucel (hydroxypropylcellulose) (HPC) 91 % of control | [1] 86 % of control | dose: 200.0 mg/kg/injection, schedule: Q01DX001 (ip), vehicle: Klucel (hydroxypropylcellulose) (HPC) 93 % of control | dose: 200.0 mg/kg/injection, schedule: Q01DX009 (ip), vehicle: Klucel (hydroxypropylcellulose) (HPC) 90 % of control | dose: 200.0 mg/kg/injection, schedule: Q04DX003 (ip), vehicle: Klucel (hydroxypropylcellulose) (HPC) 91 % of control | dose: 400.0 mg/kg/injection, schedule: Q01DX001 (ip), vehicle: Klucel (hydroxypropylcellulose) (HPC) 95 % of control | dose: 400.0 mg/kg/injection, schedule: Q01DX009 (ip), vehicle: Klucel (hydroxypropylcellulose) (HPC) 86 % of control | dose: 400.0 mg/kg/injection, schedule: Q04DX003 (ip), vehicle: Klucel (hydroxypropylcellulose) (HPC) 93 % of control

CC(=O)Nc1cccc(C[P+](c2ccccc2)(c2ccccc2)c2ccccc2)c1
inactive: dose: 5.0 mg/kg/injection, schedule: Q01DX001 (ip), vehicle: carboxymethylcellulose (CMC) 95 % of control | dose: 10.0 mg/kg/injection, schedule: Q01DX001 (ip), vehicle: carboxymethylcellulose (CMC) 98 % of control | dose: 20.0 mg/kg/injection, schedule: Q01DX001 (ip), vehicle: carboxymethylcellulose (CMC) 95 % of control | dose: 40.0 mg/kg/injection, schedule: Q01DX001 (ip), vehicle: carboxymethylcellulose (CMC) 95 % of control | dose: 80.0 mg/kg/injection, schedule: Q01DX001 (ip), vehicle: carboxymethylcellulose (CMC) 93 % of control | [2] 97 % of control | [3] 90 % of control

O=C(O)C1c2ccccc2-c2c(-c3ccccc3)cccc21 (configuration not stated)
inactive: [4] 87 % of control | [5] 91 % of control | [6] 103 % of control

O=C(CCl)Nc1ccc([As](=O)(O)O)cc1
inactive: [7] 98 % of control | dose: 50.0 mg/kg/injection, schedule: Q01DX009 (ip), vehicle: Klucel (hydroxypropylcellulose) (HPC) 91 % of control | [8] 94 % of control | [1] 97 % of control

Cc1cc(=O)c2cc(Cc3ccc(N)cc3)ccc2[nH]1
inactive: dose: 100.0 mg/kg/injection, schedule: Q01DX001 (ip), vehicle: saline 101 % of control | dose: 200.0 mg/kg/injection, schedule: Q01DX001 (ip), vehicle: saline 108 % of control

C/C(=N\Nc1nc2ccccc2s1)c1ccc2c(c1)Sc1ccccc1O2
inactive: dose: 75.0 mg/kg/injection, schedule: Q04DX003 (ip), vehicle: saline 87 % of control | dose: 150.0 mg/kg/injection, schedule: Q04DX003 (ip), vehicle: saline 90 % of control

O=C(O)CNC(=O)Nc1ccccc1
inactive: [9] 97 % of control | [4] 100 % of control | [10] 95 % of control | [5] 96 % of control | [11] 91 % of control | [6] 97 % of control

COc1cc(OC)c(Br)cc1C
inactive: [9] 100 % of control | [4] 100 % of control | [10] 101 % of control | [5] 96 % of control | [11] 102 % of control | [6] 104 % of control

CC1(C)COC(c2ccc3c(c2)OCO3)OC1
inactive: [2] 96 % of control | [3] 97 % of control | [12] 94 % of control

CNC(=O)Oc1cccc(N)c1
inactive: dose: 75.0 mg/kg/injection, schedule: Q01DX001 (ip), vehicle: saline 109 % of control | dose: 150.0 mg/kg/injection, schedule: Q01DX001 (ip), vehicle: saline 114 % of control

Brc1ccc(/C=C2\C=Cc3ccccc32)cc1
inactive: [2] 98 % of control | [3] 93 % of control | [12] 93 % of control

c1ccc([S][Pb]([c]2ccccc2)([c]2ccccc2)[c]2ccccc2)cc1
inactive: dose: 8.0 mg/kg/injection, schedule: Q04DX003 (ip), vehicle: saline 111 % of control | dose: 16.0 mg/kg/injection, schedule: Q04DX003 (ip), vehicle: saline 103 % of control | dose: 32.0 mg/kg/injection, schedule: Q04DX003 (ip), vehicle: saline 122 % of control

N#CCN1C(=O)c2ccccc2C1=O
inactive: dose: 12.5 mg/kg/injection, schedule: Q01DX009 (ip), vehicle: Klucel (hydroxypropylcellulose) (HPC) 96 % of control | dose: 12.5 mg/kg/injection, schedule: Q04DX003 (ip), vehicle: Klucel (hydroxypropylcellulose) (HPC) 100 % of control | [7] 101 % of control | dose: 25.0 mg/kg/injection, schedule: Q04DX003 (ip), vehicle: Klucel (hydroxypropylcellulose) (HPC) 98 % of control | [8] 100 % of control | dose: 75.0 mg/kg/injection, schedule: Q01DX001 (ip), vehicle: other 107 % of control

Cn1c2ccccc2c2nnc(NCCCO)nc21
inactive: dose: 100.0 mg/kg/injection, schedule: Q04DX002 (ip), vehicle: saline with Tween-80 86 % of control | dose: 200.0 mg/kg/injection, schedule: Q04DX002 (ip), vehicle: saline with Tween-80 104 % of control | dose: 400.0 mg/kg/injection, schedule: Q04DX002 (ip), vehicle: saline with Tween-80 97 % of control
